Drawing on the METLIN SMRT retention time set (Domingo-Almenara et al. 2019), this text covers RP-LC retention time for 57 molecules.

The structures appear in SMILES notation.

This data set in a line: gradient 5% acetonitrile 3 min, to 50% in 2 min, to 85% in 15 min, held 3 min, 100 µL/min. The note with it: column: Zorbax Extend-C18 2.1 x 50 mm; eluents: water / acetonitrile, 0.1% formic acid. In outline: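 Retention times of pure standards were taken from adduct peaks that were selected by computer and manually inspected. Over 3 months, mixtures of ~100 molecules were run by HPLC–quadrupole time-of-flight mass spectrometry in positive and negative ionization mode. The Zorbax Extend-C18 column (2.1 × 50 mm, 1.8 μm) ran at 100 μL/min in water and acetonitrile, each containing 0.1% formic acid, with 40 μL dead volume and 900 μL dwell volume.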
`CCCNc1cc(N2CCC(CCC(=O)NCCC(C)C)CC2)ncn1` yielded an RP-LC retention time of 693 s. The molecule `COc1ccc(-c2noc(-c3nn(-c4ccc(C)c(C)c4)ccc3=O)n2)cc1OC` yielded an RP-LC retention time of 886 s. The value for `CCC(=O)N1CCc2cc(C(=O)N3CCN(Cc4ccc5c(c4)OCO5)CC3)ccc21` was 611 s; that for `Cn1nc(C2CCN(C(=O)NCc3ccccc3)CC2)c2c1CCOC2` was 668 s; that for `Cc1nc(N2CCN(c3ncccn3)CC2)nc2c1C(=O)CC(c1ccc(F)cc1)C2` (configuration not stated) was 1190 s. `CCOc1ccccc1NC(=O)NCCc1cn(C)c2ncccc12` displayed an RP-LC retention time of 733 s. `Cc1cc(C)cc(NC(=O)Cn2cnc3c(sc4nc(-c5ccccc5)ccc43)c2=O)c1`: the RP-LC retention time was 1100 s. Under `O=C(C1CCN(c2nc3ccc(-c4cccnc4)nc3s2)CC1)N1CCCCC1` stands 652 s; under `Fc1cccc(-c2noc(Cc3nnc(-c4ccccc4)o3)n2)c1`, 974 s.

`CCCOc1ccc(-c2noc(Cc3nc(-c4cccc(OC)c4)cs3)n2)cc1`: the RP-LC retention time turned out to be 1360 s.

In turn, `COCCNC(=O)C1CCCN(S(=O)(=O)c2cc(OC)ccc2OC)C1` (configuration not stated) gave an RP-LC retention time of 687 s.

`CC(C)c1ccc(-c2nc3ncccn3c2NCc2ccc(Cl)cc2)cc1` came in with an RP-LC retention time of 936 s.

Regarding `O=C(CSc1nnc2c3sc(N4CCCC4)nc3ncn12)Nc1ccc(F)c(F)c1`, the RP-LC retention time was 863 s. Turning to `COCCC(=O)NC1CCN(C2=NS(=O)(=O)C(c3ccc(C)cc3)=C2C)CC1`, the RP-LC retention time came out at 708 s. For the molecule `CCC(=O)Nc1ccc(C2(C(=O)N3CCN(c4cccc(C)c4)CC3)CCC2)cc1`, the RP-LC retention time was determined as 908 s. Under `CC(Oc1ccc(Cl)cc1)C(=O)NCC1CCOCC1` (configuration not stated) stands 782 s; under `O=C(c1ccc(F)cc1F)N1CCC(n2cnnc2C2CC2)CC1`, 633 s. Under `Cc1onc(-c2ccccc2Cl)c1C(=O)Nc1nc(-c2ccc([N+](=O)[O-])cc2)cs1` stands 1100 s. On to `Cc1cc2n(n1)CCCN2Cc1ccc(C(=O)NCCCN2CCCC2=O)cc1`, for which the RP-LC retention time came out at 587 s. With `CC(C)C(=O)Nc1ccc(CCc2nc3ccc(C(=O)NCCC4=CCCCC4)cc3[nH]2)cc1`, the RP-LC retention time came to 731 s.

Take `CN(C)C(=O)c1cc2c(s1)CCC(C(=O)NCCc1ccccn1)C2` (configuration not stated): the RP-LC retention time amounted to 560 s.

`COc1ccccc1-c1noc(Cn2nc(-c3ccc4c(c3)OCO4)ccc2=O)n1` gave an RP-LC retention time of 877 s. With `CCn1ccc2c(cc(C(=O)Nc3c(C)cccc3C)n2C)c1=O`, the RP-LC retention time was found to be 721 s. Consider `O=S(=O)(Cc1ccccc1F)N1CCOc2ccc(N3CCOCC3)cc2C1`, for which the RP-LC retention time worked out at 861 s. Under `CCCNC(=O)C1CCN(c2ccc(SCC(=O)Nc3cc(OC)ccc3OC)nn2)CC1` stands 662 s. Under `COc1cc([C@H]2c3cc4c(cc3[C@@H](O)[C@H](CO)[C@H]2C(=O)N2CCCc3ccccc32)OCO4)cc(OC)c1OC` stands 734 s; under `Cc1cnc(-c2ccncc2)n1CCNS(=O)(=O)c1ccc2c(c1)CCC2`, 633 s; under `CC(C)CCC(=O)N1CCN(c2nc(CN3CCC(C)CC3)cs2)CC1`, 671 s. In turn, `O=S(=O)(NCC(c1ccco1)N1CCN(c2ccccc2F)CC1)c1cccs1` (configuration not stated) yielded an RP-LC retention time of 672 s.

As for `CCn1cc(CCNC(=O)Nc2ccc3c(c2)OCO3)c2cccnc21`, the RP-LC retention time turned out to be 672 s. As to `Cc1nnc(NC(=O)Cc2csc(SCC(=O)c3ccc(F)cc3)n2)s1`, the RP-LC retention time was determined as 724 s. The value for `CCOCCCNC(=O)C1CCN(C2=NS(=O)(=O)C(c3ccc(C)c(C)c3)=C2C)CC1` was 786 s. The value for `CC1CCc2c(sc3nc(CCC(=O)NCCc4c[nH]c5ccccc45)[nH]c(=O)c23)C1` (configuration not stated) was 898 s; that for `CCOC(CCNC(=O)CCC(=O)Nc1ccc2nc(N3CCN(C)CC3)cc(C)c2c1)OCC` was 546 s; that for `Cc1ccc(-n2ccc(=O)c(-c3nc(-c4ccc(Cl)c(F)c4)no3)n2)cc1` was 1050 s. Under `CCCS(=O)(=O)c1nc2ccc(NS(=O)(=O)c3c(C)cc(C)cc3C)cc2s1` stands 1030 s; under `Cc1ccc(S(=O)(=O)c2cnc(N3CCN(c4cccc(C)c4)CC3)nc2N)cc1`, 1130 s. As for `CCCn1c(=O)sc2cc(S(=O)(=O)N3CCC(C(=O)NCc4ccc(C)cc4)CC3)ccc21`, the RP-LC retention time came out at 969 s.

For `Cc1ccc(NC(=O)N2C[C@H](c3nc(-c4cccnc4)no3)[C@@H](C)C2)cc1`, the RP-LC retention time was 820 s. As to `Cc1ccc(C)c(NC(=O)CN2C(=O)C(C(=O)N3CCCC3)Sc3ccccc32)c1` (configuration not stated), the RP-LC retention time was determined as 969 s.

Regarding `O=C1CCCc2cc(S(=O)(=O)NCCN3CCN(c4ccccc4F)CC3)ccc2N1`, the RP-LC retention time turned out to be 621 s. The value for `Cn1c(C2CCN(C(=O)Nc3cccc(C(F)(F)F)c3)CC2)cc(=O)n2nccc12` was 717 s.

As for `COc1ccc(OCC(=O)N2CCc3c(c(C(=O)N4CCCC(C(=O)NC5CC5)C4)nn3C)C2)cc1` (configuration not stated), the RP-LC retention time stood at 657 s. The value for `CCCNC(=O)N1CCN(Cc2nc(-c3ccc(OCC)cc3)oc2C)CC1` was 661 s; that for `COC(=O)c1cn(CC(=O)NC(C)c2ccc3c(c2)OCCCO3)c2ccccc12` (configuration not stated) was 835 s.

Take `COc1ccc(OC)c(NC(=O)N2CCC(n3cnc4cccnc43)CC2)c1`: the RP-LC retention time is 649 s. `CC(=O)Nc1ccc(C(=O)N2CC3CN(S(=O)(=O)c4cccc(F)c4)CC(C2)O3)cc1` had an RP-LC retention time of 685 s. Under `Cn1cc2c(n1)c(=O)n(Cc1ccc(F)cc1)c1nn(Cc3ccccc3F)c(=O)n21` stands 1020 s; under `Cc1ccccc1Nc1c(-c2cccc(Cl)c2)nc2cccc(C)n12`, 802 s. The value for `COc1ccc(-n2c(=O)n(C)c(=O)c3cc(C(=O)Nc4ccccc4C(N)=O)cnc32)cc1` was 787 s.

`COCCN1CCn2cc(S(=O)(=O)NCc3ccc(F)cc3Cl)cc2C1=O` displayed an RP-LC retention time of 735 s. In turn, `CN(C)S(=O)(=O)c1ccc(C(=O)N2CCCC(c3nnc(-c4cccs4)o3)C2)cc1` (configuration not stated) returned an RP-LC retention time of 714 s. Under `CCc1nnc2nc(N3CCN(C(=O)c4cccs4)CC3)cc(C)n12` stands 592 s; under `COc1ccc(N2CC(c3noc(-c4ccc(C)c(C)c4)n3)CC2=O)cc1` (configuration not stated), 1030 s. Under `O=C(C1CCN(c2nnc(-c3ccccc3)o2)CC1)N1CCN(C2CCCCC2)CC1` stands 628 s. `Cc1ccc(NC(=O)N2CCc3[nH]cnc3C2c2ccncc2)cc1Cl` (configuration not stated) gave an RP-LC retention time of 585 s. The value for `COc1ccc(C2(C(=O)N3CCN(C(=O)N4C[C@H]5C[C@H](C4)[C@H]4CCCC(=O)N4C5)CC3)CC2)cc1` was 696 s.
